Reference: PMC9851200, “Multiparameter phenotypic screening for endogenous TFEB and TFE3 translocation identifies novel chemical series modulating lysosome function” (Autophagy, 2022)
Where two headings read alike, the source gives them in different places.

Assays:
[1] = test system: SH-SY5Y cells
Method: Total cell lysis with 5 µL 5% Triton-X 100 (Sigma-Aldrich, T8787) is used as a positive control for the assay and toxicity is expressed as a percentage of luminescence under DMSO conditions.

[2] = target: T1, PRKD1 (Homo sapiens, UniProt Q15139); conditions: cited from earlier work
T1 sequence (Q15139 1-912): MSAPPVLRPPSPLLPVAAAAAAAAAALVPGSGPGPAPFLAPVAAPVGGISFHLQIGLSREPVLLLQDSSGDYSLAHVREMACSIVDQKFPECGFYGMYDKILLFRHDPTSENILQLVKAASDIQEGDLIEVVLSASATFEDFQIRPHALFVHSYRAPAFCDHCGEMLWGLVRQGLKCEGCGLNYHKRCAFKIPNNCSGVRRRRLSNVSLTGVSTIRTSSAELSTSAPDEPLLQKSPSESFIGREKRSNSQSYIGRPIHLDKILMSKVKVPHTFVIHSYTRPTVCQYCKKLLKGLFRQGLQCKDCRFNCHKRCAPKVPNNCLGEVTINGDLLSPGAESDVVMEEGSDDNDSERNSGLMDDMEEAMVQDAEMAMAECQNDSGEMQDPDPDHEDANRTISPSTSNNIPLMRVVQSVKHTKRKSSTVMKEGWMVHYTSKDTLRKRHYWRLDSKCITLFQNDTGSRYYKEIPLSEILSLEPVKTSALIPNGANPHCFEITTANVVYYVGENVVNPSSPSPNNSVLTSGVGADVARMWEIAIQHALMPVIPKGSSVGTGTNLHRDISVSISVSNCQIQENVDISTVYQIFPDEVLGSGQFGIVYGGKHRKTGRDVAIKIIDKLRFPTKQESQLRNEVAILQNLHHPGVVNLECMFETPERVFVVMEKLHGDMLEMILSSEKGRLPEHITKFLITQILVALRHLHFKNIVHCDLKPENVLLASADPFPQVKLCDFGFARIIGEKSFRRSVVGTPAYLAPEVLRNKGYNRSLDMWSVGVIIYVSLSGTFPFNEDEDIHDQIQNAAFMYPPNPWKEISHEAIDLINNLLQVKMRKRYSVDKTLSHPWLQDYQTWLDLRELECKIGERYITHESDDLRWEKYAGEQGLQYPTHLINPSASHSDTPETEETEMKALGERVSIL

[3] = target: T2, PRKD2 (Homo sapiens, UniProt Q9BZL6); conditions: read-out: IC50 PRKD2; cited from earlier work
T2 sequence (Q9BZL6 1-878): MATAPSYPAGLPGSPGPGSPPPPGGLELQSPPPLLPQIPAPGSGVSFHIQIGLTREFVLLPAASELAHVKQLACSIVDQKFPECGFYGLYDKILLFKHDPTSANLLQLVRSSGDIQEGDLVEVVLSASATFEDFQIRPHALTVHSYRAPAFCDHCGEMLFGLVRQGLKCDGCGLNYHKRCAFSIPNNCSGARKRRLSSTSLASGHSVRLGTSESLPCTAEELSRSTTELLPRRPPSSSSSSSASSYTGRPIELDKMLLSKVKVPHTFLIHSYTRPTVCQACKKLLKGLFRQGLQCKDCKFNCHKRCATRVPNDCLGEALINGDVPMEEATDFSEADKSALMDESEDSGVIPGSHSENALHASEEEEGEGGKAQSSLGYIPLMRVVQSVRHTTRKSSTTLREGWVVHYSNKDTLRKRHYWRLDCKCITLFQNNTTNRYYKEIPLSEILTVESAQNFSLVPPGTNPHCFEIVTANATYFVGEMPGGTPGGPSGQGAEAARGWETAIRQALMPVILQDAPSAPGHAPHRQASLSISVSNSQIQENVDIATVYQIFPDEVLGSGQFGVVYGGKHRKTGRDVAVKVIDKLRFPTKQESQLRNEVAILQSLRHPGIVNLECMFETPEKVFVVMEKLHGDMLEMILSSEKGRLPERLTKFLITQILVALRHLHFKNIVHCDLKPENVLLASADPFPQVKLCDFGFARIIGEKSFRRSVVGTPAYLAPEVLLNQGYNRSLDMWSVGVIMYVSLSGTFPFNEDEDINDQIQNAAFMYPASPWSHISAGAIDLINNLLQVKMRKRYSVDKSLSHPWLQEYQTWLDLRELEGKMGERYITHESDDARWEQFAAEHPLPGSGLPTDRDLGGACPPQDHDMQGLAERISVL

[4] = target: T3, ACVR1B (Homo sapiens, UniProt P36896); conditions: cited from earlier work
T3 sequence (P36896 24-505): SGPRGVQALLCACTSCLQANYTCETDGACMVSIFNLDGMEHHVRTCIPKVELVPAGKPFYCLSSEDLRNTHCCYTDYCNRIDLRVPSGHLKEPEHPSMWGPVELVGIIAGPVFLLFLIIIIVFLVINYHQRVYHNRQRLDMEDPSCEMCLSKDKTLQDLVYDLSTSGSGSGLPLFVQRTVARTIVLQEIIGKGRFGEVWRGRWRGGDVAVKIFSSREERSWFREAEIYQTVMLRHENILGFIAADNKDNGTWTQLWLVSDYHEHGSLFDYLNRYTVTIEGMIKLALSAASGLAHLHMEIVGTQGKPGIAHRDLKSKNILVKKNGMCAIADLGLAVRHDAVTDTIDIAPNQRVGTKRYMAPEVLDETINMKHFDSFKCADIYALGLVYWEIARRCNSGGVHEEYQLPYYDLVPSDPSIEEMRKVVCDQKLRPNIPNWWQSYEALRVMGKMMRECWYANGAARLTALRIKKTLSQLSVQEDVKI

[5] = target: T4, JAK1(JH2) (Homo sapiens, UniProt P23458); conditions: cited from earlier work
T4 construct: JAK1(JH2)
T4 sequence (P23458 583-855 limits assumed): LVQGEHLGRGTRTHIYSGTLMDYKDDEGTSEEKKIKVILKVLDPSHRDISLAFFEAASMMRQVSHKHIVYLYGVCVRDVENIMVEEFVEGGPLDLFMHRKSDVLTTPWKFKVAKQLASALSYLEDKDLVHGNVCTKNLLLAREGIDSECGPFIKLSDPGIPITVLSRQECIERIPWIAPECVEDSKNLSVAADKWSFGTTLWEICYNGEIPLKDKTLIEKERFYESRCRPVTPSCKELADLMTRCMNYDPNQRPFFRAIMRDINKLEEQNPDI

[6] = target: BMPR1B (Homo sapiens, UniProt O00238); conditions: cited from earlier work
[7] = target: CIT (Homo sapiens, UniProt O14578); conditions: cited from earlier work
[8] = target: MTOR (Homo sapiens, UniProt P42345); conditions: cited from earlier work
[9] = target: T2, PRKD2; conditions: cited from earlier work
[10] = target: CDC42BPB/MRCKB (Homo sapiens, UniProt Q9Y5S2); conditions: cited from earlier work
Chain of CDC42BPB/MRCKB (Q9Y5S2 whole entry): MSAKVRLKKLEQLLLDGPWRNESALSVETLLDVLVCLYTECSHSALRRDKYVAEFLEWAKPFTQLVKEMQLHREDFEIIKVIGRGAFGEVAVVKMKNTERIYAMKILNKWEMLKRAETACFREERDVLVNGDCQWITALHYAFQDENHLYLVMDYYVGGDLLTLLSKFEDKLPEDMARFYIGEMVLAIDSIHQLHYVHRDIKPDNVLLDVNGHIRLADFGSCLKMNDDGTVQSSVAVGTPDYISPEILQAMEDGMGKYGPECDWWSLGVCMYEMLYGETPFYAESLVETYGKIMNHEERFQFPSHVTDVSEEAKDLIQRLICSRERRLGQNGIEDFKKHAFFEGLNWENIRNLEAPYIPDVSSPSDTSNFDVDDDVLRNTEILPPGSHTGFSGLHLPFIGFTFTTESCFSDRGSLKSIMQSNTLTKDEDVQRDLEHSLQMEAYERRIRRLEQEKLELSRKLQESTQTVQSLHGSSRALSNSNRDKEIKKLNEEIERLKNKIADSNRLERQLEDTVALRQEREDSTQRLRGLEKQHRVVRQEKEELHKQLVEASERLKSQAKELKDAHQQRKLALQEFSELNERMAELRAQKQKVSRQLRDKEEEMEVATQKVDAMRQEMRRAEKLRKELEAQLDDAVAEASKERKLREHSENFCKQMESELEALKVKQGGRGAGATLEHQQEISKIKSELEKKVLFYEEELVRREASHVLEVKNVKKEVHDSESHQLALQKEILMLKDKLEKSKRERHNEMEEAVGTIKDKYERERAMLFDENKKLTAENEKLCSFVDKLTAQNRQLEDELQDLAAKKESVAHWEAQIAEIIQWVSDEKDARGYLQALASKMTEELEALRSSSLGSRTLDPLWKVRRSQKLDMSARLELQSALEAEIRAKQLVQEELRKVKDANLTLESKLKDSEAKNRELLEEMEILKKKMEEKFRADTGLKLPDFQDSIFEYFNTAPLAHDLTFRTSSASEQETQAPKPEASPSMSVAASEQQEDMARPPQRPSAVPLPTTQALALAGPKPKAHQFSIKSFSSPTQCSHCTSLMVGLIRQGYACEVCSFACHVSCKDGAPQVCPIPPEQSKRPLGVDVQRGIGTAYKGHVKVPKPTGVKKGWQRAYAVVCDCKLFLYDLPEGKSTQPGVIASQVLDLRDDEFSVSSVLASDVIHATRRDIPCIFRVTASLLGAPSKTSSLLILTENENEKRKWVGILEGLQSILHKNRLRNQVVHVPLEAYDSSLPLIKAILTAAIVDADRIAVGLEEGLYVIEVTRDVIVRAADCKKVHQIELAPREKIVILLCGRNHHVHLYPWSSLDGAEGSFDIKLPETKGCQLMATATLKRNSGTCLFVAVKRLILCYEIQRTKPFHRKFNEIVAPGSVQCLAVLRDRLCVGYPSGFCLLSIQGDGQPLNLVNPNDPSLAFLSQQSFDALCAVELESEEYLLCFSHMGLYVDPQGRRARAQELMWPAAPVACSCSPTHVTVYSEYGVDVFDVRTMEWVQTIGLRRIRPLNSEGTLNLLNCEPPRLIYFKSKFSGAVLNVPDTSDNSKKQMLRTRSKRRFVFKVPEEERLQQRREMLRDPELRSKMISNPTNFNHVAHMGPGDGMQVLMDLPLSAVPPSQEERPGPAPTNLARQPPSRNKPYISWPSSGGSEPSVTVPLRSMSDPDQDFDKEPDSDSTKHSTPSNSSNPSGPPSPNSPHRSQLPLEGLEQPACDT

[11] = target: T1, PRKD1; conditions: cited from earlier work; remark: listed apart in the source
[12] = target: CDC42BPG/DMPK2 (Homo sapiens, UniProt Q6DT37); conditions: cited from earlier work
[13] = target: PIKFYVE (Homo sapiens, UniProt Q9Y2I7); conditions: cited from earlier work
Chain of PIKFYVE (Q9Y2I7 whole entry): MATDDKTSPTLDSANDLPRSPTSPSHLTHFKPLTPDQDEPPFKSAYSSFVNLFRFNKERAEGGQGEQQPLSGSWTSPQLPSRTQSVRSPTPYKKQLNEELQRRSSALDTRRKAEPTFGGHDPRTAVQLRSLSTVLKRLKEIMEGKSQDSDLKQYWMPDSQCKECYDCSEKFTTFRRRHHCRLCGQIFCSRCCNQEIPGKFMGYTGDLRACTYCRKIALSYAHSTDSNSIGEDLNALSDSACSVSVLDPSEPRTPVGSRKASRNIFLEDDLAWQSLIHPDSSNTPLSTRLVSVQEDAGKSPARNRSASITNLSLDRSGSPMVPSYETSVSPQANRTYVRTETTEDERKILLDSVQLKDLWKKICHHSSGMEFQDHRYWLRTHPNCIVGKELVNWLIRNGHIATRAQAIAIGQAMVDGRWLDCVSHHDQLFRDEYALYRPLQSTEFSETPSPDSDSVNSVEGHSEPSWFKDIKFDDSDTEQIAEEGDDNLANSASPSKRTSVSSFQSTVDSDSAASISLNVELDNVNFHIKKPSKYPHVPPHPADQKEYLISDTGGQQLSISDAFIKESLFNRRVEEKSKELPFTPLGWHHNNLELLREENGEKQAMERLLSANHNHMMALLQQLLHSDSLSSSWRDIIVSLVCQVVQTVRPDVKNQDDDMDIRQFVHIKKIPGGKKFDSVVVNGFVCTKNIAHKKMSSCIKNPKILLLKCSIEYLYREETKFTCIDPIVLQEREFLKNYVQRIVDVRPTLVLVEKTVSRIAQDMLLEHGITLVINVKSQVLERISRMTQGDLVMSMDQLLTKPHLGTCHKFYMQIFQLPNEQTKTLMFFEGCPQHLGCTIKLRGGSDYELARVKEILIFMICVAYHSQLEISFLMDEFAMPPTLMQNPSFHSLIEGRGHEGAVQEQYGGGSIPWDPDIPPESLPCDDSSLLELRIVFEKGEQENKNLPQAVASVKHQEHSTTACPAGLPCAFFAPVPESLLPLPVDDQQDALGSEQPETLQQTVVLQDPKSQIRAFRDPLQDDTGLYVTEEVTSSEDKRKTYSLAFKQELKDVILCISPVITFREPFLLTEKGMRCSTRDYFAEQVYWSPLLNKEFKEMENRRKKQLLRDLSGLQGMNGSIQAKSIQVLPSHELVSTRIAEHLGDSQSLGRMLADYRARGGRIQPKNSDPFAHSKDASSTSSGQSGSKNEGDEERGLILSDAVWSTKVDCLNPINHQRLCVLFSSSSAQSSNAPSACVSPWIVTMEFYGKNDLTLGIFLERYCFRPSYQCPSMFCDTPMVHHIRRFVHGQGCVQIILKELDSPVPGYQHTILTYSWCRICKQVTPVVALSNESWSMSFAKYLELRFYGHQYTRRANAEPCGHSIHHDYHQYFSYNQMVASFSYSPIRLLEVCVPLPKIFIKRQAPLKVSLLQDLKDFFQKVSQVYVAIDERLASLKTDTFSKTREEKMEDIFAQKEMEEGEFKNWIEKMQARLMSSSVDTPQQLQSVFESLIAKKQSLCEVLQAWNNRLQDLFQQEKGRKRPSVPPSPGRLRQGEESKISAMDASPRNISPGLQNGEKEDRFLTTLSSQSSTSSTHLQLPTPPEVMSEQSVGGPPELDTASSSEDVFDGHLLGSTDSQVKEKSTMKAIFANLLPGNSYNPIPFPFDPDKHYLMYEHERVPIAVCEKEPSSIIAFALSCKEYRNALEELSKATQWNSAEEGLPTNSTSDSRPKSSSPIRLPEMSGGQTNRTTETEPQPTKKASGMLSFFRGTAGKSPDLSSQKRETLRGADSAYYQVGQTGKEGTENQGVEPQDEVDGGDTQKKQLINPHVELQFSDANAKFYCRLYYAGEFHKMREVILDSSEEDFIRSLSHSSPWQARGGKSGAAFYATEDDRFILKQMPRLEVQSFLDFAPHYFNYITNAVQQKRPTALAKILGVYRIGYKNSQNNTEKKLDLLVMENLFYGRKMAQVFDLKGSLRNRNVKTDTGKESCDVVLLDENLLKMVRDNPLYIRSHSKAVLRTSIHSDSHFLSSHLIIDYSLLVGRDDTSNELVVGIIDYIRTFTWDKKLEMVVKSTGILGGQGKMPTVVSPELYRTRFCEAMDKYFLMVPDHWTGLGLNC

[14] = target: T5, PRKD3 (Homo sapiens, UniProt O94806); conditions: cited from earlier work
T5 sequence (O94806 1-890): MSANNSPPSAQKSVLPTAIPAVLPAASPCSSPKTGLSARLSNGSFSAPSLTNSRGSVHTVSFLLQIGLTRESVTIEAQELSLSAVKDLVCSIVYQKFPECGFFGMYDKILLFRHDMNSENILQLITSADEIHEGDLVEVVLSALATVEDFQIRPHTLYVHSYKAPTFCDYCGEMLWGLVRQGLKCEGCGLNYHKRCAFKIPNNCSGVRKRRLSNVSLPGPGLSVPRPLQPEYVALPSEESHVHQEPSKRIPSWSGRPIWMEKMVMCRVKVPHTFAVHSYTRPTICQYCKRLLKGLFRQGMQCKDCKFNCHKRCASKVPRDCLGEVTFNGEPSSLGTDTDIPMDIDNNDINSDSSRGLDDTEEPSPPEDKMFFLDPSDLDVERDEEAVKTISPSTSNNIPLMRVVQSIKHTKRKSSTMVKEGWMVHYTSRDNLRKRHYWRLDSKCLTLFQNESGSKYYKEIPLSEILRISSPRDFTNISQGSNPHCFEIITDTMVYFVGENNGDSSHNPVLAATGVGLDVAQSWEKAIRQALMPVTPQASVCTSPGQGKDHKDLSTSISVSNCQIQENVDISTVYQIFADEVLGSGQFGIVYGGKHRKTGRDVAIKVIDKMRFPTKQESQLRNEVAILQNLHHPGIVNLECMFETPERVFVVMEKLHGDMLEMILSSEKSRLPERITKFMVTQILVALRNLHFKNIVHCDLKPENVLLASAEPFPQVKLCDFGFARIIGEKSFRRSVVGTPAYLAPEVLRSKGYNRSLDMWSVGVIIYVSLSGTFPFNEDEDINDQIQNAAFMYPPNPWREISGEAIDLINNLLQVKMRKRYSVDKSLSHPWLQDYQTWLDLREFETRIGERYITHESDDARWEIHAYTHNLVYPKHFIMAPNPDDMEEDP

[15] = target: TGFBR2 (Homo sapiens, UniProt P37173); conditions: cited from earlier work
Chain of TGFBR2 (P37173 23-567): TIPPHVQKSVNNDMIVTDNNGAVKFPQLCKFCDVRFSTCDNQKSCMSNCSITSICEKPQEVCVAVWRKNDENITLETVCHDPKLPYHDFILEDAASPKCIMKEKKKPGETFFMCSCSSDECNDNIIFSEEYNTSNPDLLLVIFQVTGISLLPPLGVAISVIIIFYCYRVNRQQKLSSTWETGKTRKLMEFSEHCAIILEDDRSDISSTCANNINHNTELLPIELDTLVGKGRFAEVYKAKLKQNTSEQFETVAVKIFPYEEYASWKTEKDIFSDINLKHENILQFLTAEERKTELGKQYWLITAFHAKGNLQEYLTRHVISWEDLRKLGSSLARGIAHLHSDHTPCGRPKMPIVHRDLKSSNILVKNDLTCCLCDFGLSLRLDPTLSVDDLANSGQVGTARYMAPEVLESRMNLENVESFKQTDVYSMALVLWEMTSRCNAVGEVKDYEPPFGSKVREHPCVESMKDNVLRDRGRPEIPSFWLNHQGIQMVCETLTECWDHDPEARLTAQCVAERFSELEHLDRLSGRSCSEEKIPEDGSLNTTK

[16] = target: CSNK1D (Homo sapiens, UniProt P48730); conditions: cited from earlier work
Chain of CSNK1D (P48730 whole entry): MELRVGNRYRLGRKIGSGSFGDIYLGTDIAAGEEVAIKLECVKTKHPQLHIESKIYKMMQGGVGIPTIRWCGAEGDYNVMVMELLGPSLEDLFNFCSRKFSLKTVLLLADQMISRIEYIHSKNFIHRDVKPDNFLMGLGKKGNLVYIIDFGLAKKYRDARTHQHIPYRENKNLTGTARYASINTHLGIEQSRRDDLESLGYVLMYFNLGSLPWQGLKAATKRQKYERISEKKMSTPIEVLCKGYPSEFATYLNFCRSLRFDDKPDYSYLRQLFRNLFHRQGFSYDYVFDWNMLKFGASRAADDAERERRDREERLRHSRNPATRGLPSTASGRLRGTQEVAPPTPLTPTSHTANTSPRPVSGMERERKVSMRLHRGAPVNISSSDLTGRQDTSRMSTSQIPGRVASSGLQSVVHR

[17] = target: CSNK1E (Homo sapiens, UniProt P49674); conditions: cited from earlier work
[18] = test system: endogenous TFE3; experiment: TFE3 nuclear translocation, immunocytochemistry high-content imaging; assay type: cell-based; conditions: for EC50 / Best-Fit Values Span: 24 h, SH-SY5Y; for EC50: read-out: Best-Fit Values EC50 (converted); for Summary: activity in TFE3 assays compared with original NK-140, OT activity; for Best-Fit Values Span: TFE3 assay concentration response
[19] = target: T6, TGFBR1 (Homo sapiens, UniProt P36897); experiment: TGFBR1 binding KD (Table S3); conditions: read-out: TGFBR1 KD
T6 sequence (P36897 34-503): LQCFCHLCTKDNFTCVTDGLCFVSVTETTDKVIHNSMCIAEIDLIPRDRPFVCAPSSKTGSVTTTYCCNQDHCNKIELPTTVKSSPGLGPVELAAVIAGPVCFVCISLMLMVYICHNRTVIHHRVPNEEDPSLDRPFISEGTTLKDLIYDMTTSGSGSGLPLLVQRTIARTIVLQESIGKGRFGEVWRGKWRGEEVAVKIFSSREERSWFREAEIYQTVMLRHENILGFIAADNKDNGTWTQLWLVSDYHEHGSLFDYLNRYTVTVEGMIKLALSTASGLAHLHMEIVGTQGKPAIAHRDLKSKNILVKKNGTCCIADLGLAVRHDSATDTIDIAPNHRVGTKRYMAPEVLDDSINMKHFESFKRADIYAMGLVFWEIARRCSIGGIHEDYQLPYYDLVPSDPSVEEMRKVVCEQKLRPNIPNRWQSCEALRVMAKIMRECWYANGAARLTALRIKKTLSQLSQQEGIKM
Excerpt: (§1) Supplement KAUP_A_2095834_SM5251.zip/Supplementary Tables R7.xlsx, sheet "Table S3 - Analogues"

[20] = target: T1, PRKD1; experiment: PRKD1 binding KD (Table S3); conditions: relation sign
Excerpt: as §1

[21] = TFE3 assay, second EC50 of biphasic/bell-shaped fit or OT (off-target) activity, unit inferred

For `CC[C@@H](N)CNc1ccnc(-c2cc(-c3cnn(C)c3)ccc2O)n1.Cl.Cl` [CRT0066101, reference compound], the “Cellular toxicity (AK release and nuclear count, in words)” value [1] is given as “pronounced cellular toxicity”, the “Concentrations toxic to cells (reduction in nuclear count and increase in AK signal)” value [1] is given as “above 1 µM” and the IC50 [2] is given as 1 nM. For the same compound, the IC50 [3] was 2.5 nM.
For `Cc1cccc(-c2nc(Nc3ccc4[nH]ncc4c3)c3ccccc3n2)n1` [GW857175], the “KINOMEscan binding ACVR1B” value [4] is listed as 100%, the “KINOMEscan binding JAK1(JH2)” value [5] is listed as 83% and the “KINOMEscan binding BMPR1B” value [6] is listed as 34%. For the same compound, the “KINOMEscan binding CIT” value [7] was 9%, the “KINOMEscan binding MTOR” value [8] was 0% and the “KINOMEscan binding PRKD2” value [9] was 99.9%. For the same compound, the “KINOMEscan binding CDC42BPB/MRCKB” value [10] was 72%, the “KINOMEscan binding PRKD1” value [11] was 99.8% and the “KINOMEscan binding CDC42BPG/DMPK2” value [12] was 72%. The “KINOMEscan binding PIKFYVE” value [13] was 85%, the “KINOMEscan binding PRKD3” value [14] was 98.1% and the “KINOMEscan binding TGFBR2” value [15] was 0%. The “KINOMEscan binding CSNK1D” value [16] was 28% and the “KINOMEscan binding CSNK1E” value [17] was 28%.
In the case of `Cc1cccc(-c2nc(Nc3ccc4nc(C)sc4c3)c3ccccc3n2)n1` [NK165], the EC50 [18, 21] is reported as 3.8 µM, the EC50 ([18]; TFE3 assay, µM) is reported as 0.58 µM and the Summary [18] is reported as “Stronger, Some OT activity”. For the same compound, the Kd [19] was > 10000 nM.
Compound `COc1ccc(Nc2nc(-c3cccc(C)n3)nc3ccccc23)cc1` [NK170] has a Kd [20] of 780 nM, an EC50 ([18]; Homo sapiens) of 0.85 µM and an EC50 ([18]; Homo sapiens, TFE3 assay, µM) of 0.83 µM. The Summary [18] was “Weaker, Strong OT activity”.
For `Cc1cccc(-c2nc(Nc3ccc4ccsc4c3)c3ccccc3n2)n1` [NK219], the Kd [20] was 650 nM, the EC50 ([18]; Homo sapiens) was 2.51 µM and the EC50 ([18]; Homo sapiens, TFE3 assay, µM) was 2.5 µM. The “Best-Fit Values Span” value [18] was 44.67 and the Summary [18] was “Weaker, Strong OT activity”.
In the case of `Cc1cccc(-c2nc(Oc3ccc4scnc4c3)c3ccccc3n2)n1` [NK220], the “Best-Fit Values Span” value [18] is reported as 0.80, the Summary [18] is reported as “Inactive” and the Kd [19] is reported as > 10000 nM.
For `Cc1cccc(-c2nc(Nc3ccc4nnn(C)c4c3)c3ccccc3n2)n1` [NK222], the EC50 [18, 21] was 3.12 µM, the EC50 ([18]; TFE3 assay, µM) was 0.22 µM and the Summary [18] was “Stronger, Some OT activity”. The Kd [19] was > 10000 nM.
For `Cc1cccc(-c2nc(Nc3ccc4nn(C)nc4c3)c3ccccc3n2)n1` [NK223], the “Best-Fit Values Span” value [18] was 88.41, the EC50 [18, 21] was 1.34 µM and the Summary [18] was “Only OT activity”. The Kd [19] was > 10000 nM.
